Assay results: US12344610B2, “APOL1 inhibitors and methods of use” (Maze Therapeutics, Inc., priority 2022, dated 2025)

test system: human immortalized podocytes inducibly expressing APOL1 G2; assay: APOL1 G2 podocyte cell rescue assay (Example B4); assay type: cell-based; conditions: Homo sapiens, differentiated human podocytes, doxycycline-induced APOL1 G2, CellTiter-Glo; geometric mean of at least 2 runs; † = single run
In short: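 Differentiated hTERT-immortalized podocytes (clone D10) with doxycycline-inducible C-terminally HiBiT-tagged APOL1 G2, 6,000 cells/well, treated with doxycycline plus 8-point 3-fold compound series (0.4% DMSO) for 95 h at 37 °C. Viability by CellTiter-Glo luminescence; EC50 as geometric mean of ≥2 runs, each in duplicate.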

Structure (SMILES)	EC50
CC[C@]1(O)C[C@@H](N2C(=O)CCc3cc(OCCN4CCC5(CC4)C(=O)Nc4ccc(Cl)cc45)cnc32)C1 (single isomer, unassigned) [Compound 321, 5-chloro-1′-[2-({7-oxo-8-[(cis)-3-ethyl-3-hydroxycyclobutyl]-5,6,7,8-tetrahydro-1,8-naphthyridin-3-yl}oxy)ethyl]-1,2-dihydrospiro[indole-3,4′-piperidin]-2-one]	7.65 nM
C[C@]1(O)C[C@@H](n2ncc3cc(OCCN4CCC5(CC4)C(=O)Nc4ccc(Cl)cc45)cnc32)C1 (single isomer, unassigned) [Compound 357, 5-chloro-1′-[2-({1-[(cis)-3-hydroxy-3-methylcyclobutyl]-1H-pyrazolo[3,4-b]pyridin-5-yl}oxy)ethyl]-1,2-dihydrospiro[indole-3,4′-piperidin]-2-one]	4.04 nM
CC1(O)CC(c2ncc(OCCN3CCC4(CC3)C(=O)Nc3ccc(Cl)cc34)cn2)C1 (single isomer, unassigned) [Compound 393, 5-chloro-1′-[2-({2-[(cis) or (trans)-3-hydroxy-3-methylcyclobutyl]pyrimidin-5-yl}oxy)ethyl]-1,2-dihydrospiro[indole-3,4′-piperidin]-2-one]	23 nM
C[C@]1(O)C[C@H](n2ncc3cc(OCCN4CCC5(CC4)C(=O)Nc4ccc(Cl)cc45)cnc32)C1 (single isomer, unassigned) [Compound 408, 5-chloro-1′-[2-({1-[(trans)-3-hydroxy-3-methylcyclobutyl]-1H-pyrazolo[3,4-b]pyridin-5-yl}oxy)ethyl]-1,2-dihydrospiro[indole-3,4′-piperidin]-2-one]	7.05 nM
CC(c1ncc(OCCN2CCC3(CC2)C(=O)Nc2ccc(Cl)cc23)cn1)S(C)(=O)=O (stereo not shown) [Compound 1, 5-Chloro-1′-(2-{[2-(1-methanesulfonylethyl)pyrimidin-5-yl]oxy}ethyl)-1,2-dihydrospiro[indole-3,4′-piperidin]-2-one]	18.8 nM
CS(=O)(=O)C1(c2ncc(OCCN3CCC4(CC3)C(=O)Nc3ccc(Cl)cc34)cn2)CC1 [Compound 4, 5-chloro-1′-(2-{[2-(1-methanesulfonylcyclopropyl)pyrimidin-5-yl]oxy}ethyl)-1,2-dihydrospiro[indole-3,4′-piperidin]-2-one]	9.16 nM
CC(C)[C@]1(O)C[C@@H](N2C(=O)CCc3cc(OCCN4CCC5(CC4)C(=O)Nc4ccc(Cl)cc45)cnc32)C1 [Compound 317, 5-chloro-1′-[2-({7-oxo-8-[(cis)-3-hydroxy-3-(propan-2-yl)cyclobutyl]-5,6,7,8-tetrahydro-1,8-naphthyridin-3-yl}oxy)ethyl]-1,2-dihydrospiro[indole-3,4′-piperidin]-2-one]	2.92 nM
C[C@]1(O)C[C@@H](n2c(=O)ccc3cc(OCCN4CCC5(CC4)C(=O)Nc4ccc(Cl)cc45)cnc32)C1 [Compound 323, 5-chloro-1′-[2-({7-oxo-8-[(cis)-3-hydroxy-3-methylcyclobutyl]-7,8-dihydro-1,8-naphthyridin-3-yl}oxy)ethyl]-1,2-dihydrospiro[indole-3,4′-piperidin]-2-one]	2.02 nM
CC(C)(CO)c1ncc(OCCN2CCC3(CC2)C(=O)Nc2ccc(Cl)cc23)cn1 [Compound 334, 5-chloro-1′-(2-{[2-(1-hydroxy-2-methylpropan-2-yl)pyrimidin-5-yl]oxy}ethyl)-1,2-dihydrospiro[indole-3,4′-piperidin]-2-one]	9.58 nM
C[C@]1(O)C[C@@H](N2C(=O)Cc3cc(OCCN4CCC5(CC4)C(=O)Nc4ccc(Cl)cc45)cnc32)C1 [Compound 345, 5-chloro-1′-[2-({2-oxo-1-[(cis)-3-hydroxy-3-methylcyclobutyl]-1H,2H,3H-pyrrolo[2,3-b]pyridin-5-yl}oxy)ethyl]-1,2-dihydrospiro[indole-3,4′-piperidin]-2-one]	15.8 nM
C[C@]1(O)C[C@@H](N2C(=O)Cc3cc(OCCN4CCC5(CC4)C(=O)Nc4ccc(C(F)F)cc45)cnc32)C1 [Compound 346, 5-(difluoromethyl)-1′-[2-({2-oxo-1-[(cis)-3-hydroxy-3-methylcyclobutyl]-1H,2H,3H-pyrrolo[2,3-b]pyridin-5-yl]oxy)ethyl]-1,2-dihydrospiro[indole-3,4′-piperidin]-2-one]	38.8 nM
C[C@]1(O)C[C@@H](n2ccc3cc(OCCN4CCC5(CC4)C(=O)Nc4ccc(Cl)cc45)cnc32)C1 [Compound 349, 5-chloro-1′-[2-({1-[(cis)-3-hydroxy-3-methylcyclobutyl]-1H-pyrrolo[2,3-b]pyridin-5-yl}oxy)ethyl]-1,2-dihydrospiro[indole-3,4′-piperidin]-2-one]	6.81 nM
C[C@]1(O)C[C@@H](n2ccc3cc(OCCN4CCC5(CC4)C(=O)Nc4ccc(C(F)F)cc45)cnc32)C1 [Compound 350, 5-(difluoromethyl)-1′-[2-({1-[(cis)-3-hydroxy-3-methylcyclobutyl]-1H-pyrrolo[2,3-b]pyridin-5-yl}oxy)ethyl]-1,2-dihydrospiro[indole-3,4′-piperidin]-2-one]	10.3 nM
C[C@]1(O)C[C@@H](n2cnc3cc(OCCN4CCC5(CC4)C(=O)Nc4ccc(Cl)cc45)cc(C(F)(F)F)c32)C1 [Compound 352, 5-chloro-1′-[2-({1-[(cis)-3-hydroxy-3-methylcyclobutyl]-7-(trifluoromethyl)-1H-1,3-benzodiazol-5-yl}oxy)ethyl]-1,2-dihydrospiro[indole-3,4′-piperidin]-2-one]	1.12 nM
C[C@]1(O)C[C@@H](N2C(=O)NCc3cc(OCCN4CCC5(CC4)C(=O)Nc4ccc(Cl)cc45)cnc32)C1 [Compound 356, 5-chloro-1′-[2-({2-oxo-1-[(cis)-3-hydroxy-3-methylcyclobutyl]-1H,2H,3H,4H-pyrido[2,3-d]pyrimidin-6-yl}oxy)ethyl]-1,2-dihydrospiro[indole-3,4′-piperidin]-2-one]	21.5 nM
CC(C)(O)c1ncc(OCCN2CCC3(CC2)C(=O)Nc2ccc(Cl)cc23)cc1C(F)(F)F [Compound 371, 5-chloro-1′-(2-{[6-(2-hydroxypropan-2-yl)-5-(trifluoromethyl)pyridin-3-yl]oxy}ethyl)-1,2-dihydrospiro[indole-3,4′-piperidin]-2-one]	1.1 nM
C[C@]1(O)C[C@@H](n2c(=O)oc3cc(OCCN4CCC5(CC4)C(=O)Nc4ccc(Cl)cc45)cnc32)C1 [Compound 394, 5-chloro-1′-[2-({2-oxo-3-[(cis)-3-hydroxy-3-methylcyclobutyl]-2H,3H-[1,3]oxazolo[4,5-b]pyridin-6-yl}oxy)ethyl]-1,2-dihydrospiro[indole-3,4′-piperidin]-2-one]	16.9 nM
O=C1Nc2ccc(Cl)cc2C12CCN(CCOc1cnc(N3CC4(CC(O)C4)C3)nc1)CC2 [Compound 396, 5-chloro-1′-{2-[(2-{6-hydroxy-2-azaspiro[3.3]heptan-2-yl}pyrimidin-5-yl)oxy]ethyl}-1,2-dihydrospiro[indole-3,4′-piperidin]-2-one]	18.6 nM
CCC1(O)CN(c2ncc(OCCN3CCC4(CC3)C(=O)Nc3ccc(Cl)cc34)cn2)C1 [Compound 397, 5-chloro-1′-(2-{[2-(3-ethyl-3-hydroxyazetidin-1-yl)pyrinlidin-5-yl]oxy}ethyl)-1,2-dihydrospiro[indole-3,4′-piperidin]-2-one]	14.3 nM
